Data from publication PMC3827032, “Functional Analysis of Hsp70 Inhibitors” (PLoS ONE, 2013).

Legend:
Hsp70 [1] = target: T1, Hsp70 (Homo sapiens, UniProt P0DMV8); experiment: ITC ([…]), SPR ([…]), DSC (Tm +[…]°C); format: binding; design: gene HSPA1A; full-length, nucleotide-free
Hsp70 [2] = target: T1, Hsp70; design: gene HSPA1A
Hsp70 [3] = target: T1, Hsp70; experiment: crystal structure of NBD ([…] Å), ITC ([…]), SPR ([…]), DSC, ATPase inhibition (Ki […]; […] with Hdj1); format: binding; design: gene HSPA1A; full-length (ITC, SPR); NBD residues 1–382 (crystal structure)

T1 sequence (P0DMV8 2-641): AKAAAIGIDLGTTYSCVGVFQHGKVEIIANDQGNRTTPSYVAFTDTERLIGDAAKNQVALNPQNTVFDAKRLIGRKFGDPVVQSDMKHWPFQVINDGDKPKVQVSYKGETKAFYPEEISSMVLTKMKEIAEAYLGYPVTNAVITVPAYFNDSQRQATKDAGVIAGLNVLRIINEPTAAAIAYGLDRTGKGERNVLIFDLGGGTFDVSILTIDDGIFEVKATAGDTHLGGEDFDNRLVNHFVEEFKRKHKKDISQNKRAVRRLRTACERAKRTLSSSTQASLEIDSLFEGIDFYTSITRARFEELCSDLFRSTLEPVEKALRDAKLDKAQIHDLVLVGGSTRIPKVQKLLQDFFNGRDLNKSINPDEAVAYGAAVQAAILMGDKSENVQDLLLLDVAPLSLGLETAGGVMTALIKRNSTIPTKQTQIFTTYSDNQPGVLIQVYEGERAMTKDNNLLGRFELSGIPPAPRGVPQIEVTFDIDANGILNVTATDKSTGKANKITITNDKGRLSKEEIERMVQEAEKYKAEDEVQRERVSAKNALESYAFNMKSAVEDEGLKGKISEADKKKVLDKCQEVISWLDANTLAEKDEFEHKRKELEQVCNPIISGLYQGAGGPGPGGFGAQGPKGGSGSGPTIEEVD

In the case of Nc1ncnc2c1ncn2[C@@H]1O[C@H](COP(=O)(O)OP(=O)(O)O)[C@@H](O)[C@H]1O [ADP], the Kd (Hsp70 [1]) is reported as 7.7 ± 0.4 nM.

Nc1ncnc2c1ncn2[C@@H]1O[C@H](COP(=O)(O)OP(=O)(O)OP(=O)(O)O)[C@@H](O)[C@H]1O [ATP] was tested, and the Km (Hsp70 [2]) was 9.9 ± 1.3 µM.

N#Cc1ccc(COC[C@H]2O[C@@H](n3c(NCc4ccc(Cl)c(Cl)c4)nc4c(N)ncnc43)[C@H](O)[C@@H]2O)cc1 [VER-155008] gave a Kd (Hsp70 [3]) of 228 ± 16 nM.
